Test [1] has as its target T1, HiBiT-BRM fusion protein in stable HeLa cell line (Homo sapiens, UniProt P51531).
T1 construct: expressed in transfected cells
In words: HiBiT-BRM cell-based degradation assay (Nano-Glo HiBiT Lytic Detection, 24 h). Details: DC50: scale not given here. Particulars: HeLa HiBiT-BRM cells; for DC50: read-out: BRM HiBit Degradation IC50; for BRM HiBit Degradation Maximum (%): top dose 30 μM. The protocol: (§1) Procedure: A stable HeLa cell line expressing HiBiT-BRM was generated. On day 0, 5000 cells were seeded in 40 μL of media into each well of 384-well cell culture plates. On day 1, cells were treated with 120 nL DMSO or 120 nL of 3-fold serially DMSO-diluted compounds (10 points in duplicate with 30 μM as final top dose). Subsequently plates were incubated for 24 h in a standard tissue culture incubator and equilibrated at room temperature for 15 minutes. Nano-Glo HiBiT Lytic Detection System (Promega N3050) reagent was freshly prepared and 20 ul was added to each well. Upon addition of this LgBit-containing reagent, the HiBiT and LgBiT proteins associate to form the luminescent NanoBiT luciferase. The plates were shaken for 10 minutes at room temperature and the bioluminescence read using an EnVision plate reader (PerkinElmer).
The degradation % was calculated using the following formula: % degradation=100%−100%×(Lumsample−LumLC)/(LumHC−LumLC). DMSO treated cells are employed as High Control (HC) and 2 μM of a known BRM/BRG1 degrader standard treated cells are employed as Low Control (LC).

Test [2] has as its target T2, HiBit-BRG1 fusion protein in stable HeLa cell line expressing HiBit-BRG1 and LgBit (Homo sapiens, UniProt P51532).
T2 construct: expressed in transfected cells
The experiment in a line: HiBiT-BRG1 cell-based degradation assay (Nano-Glo HiBiT, 24 h). Conditions: HeLa HiBit-BRG1/LgBit cells; for Dmax: top dose 30 μM, read-out: BRG1 HiBit Degradation Maximum (%); for DC50: read-out: BRMG1 HiBit Degradation IC50. The protocol:
as §1, with “On day 1, cells were treated with 120 nL DMSO or 120 nL of 3-fold serially DMSO-diluted compounds (10 points in duplicate with 30 μM as final top dose).” left out, “(PerkinElmer). For measurement of BRG1 degradation, a stable HeLa cell line expressing HiBit-BRG1 and LgBit was generated. The same protocol as above was then followed. The degradation % was calculated using the following formula: % degradation=100%−100%×(Lumsample−LumLC)/(LumHC−LumLC). DMSO treated cells are employed as High Control (HC) and 2 μM of a known BRM/BRG1 degrader standard treated cells are employed as Low Control (LC).” for “(PerkinElmer).”
Background: The HiBiT peptide binds its large partner to form an active luciferase.

Some results are limits rather than exact numbers.

T1 sequence (P51531 whole entry, the tested form may be a part): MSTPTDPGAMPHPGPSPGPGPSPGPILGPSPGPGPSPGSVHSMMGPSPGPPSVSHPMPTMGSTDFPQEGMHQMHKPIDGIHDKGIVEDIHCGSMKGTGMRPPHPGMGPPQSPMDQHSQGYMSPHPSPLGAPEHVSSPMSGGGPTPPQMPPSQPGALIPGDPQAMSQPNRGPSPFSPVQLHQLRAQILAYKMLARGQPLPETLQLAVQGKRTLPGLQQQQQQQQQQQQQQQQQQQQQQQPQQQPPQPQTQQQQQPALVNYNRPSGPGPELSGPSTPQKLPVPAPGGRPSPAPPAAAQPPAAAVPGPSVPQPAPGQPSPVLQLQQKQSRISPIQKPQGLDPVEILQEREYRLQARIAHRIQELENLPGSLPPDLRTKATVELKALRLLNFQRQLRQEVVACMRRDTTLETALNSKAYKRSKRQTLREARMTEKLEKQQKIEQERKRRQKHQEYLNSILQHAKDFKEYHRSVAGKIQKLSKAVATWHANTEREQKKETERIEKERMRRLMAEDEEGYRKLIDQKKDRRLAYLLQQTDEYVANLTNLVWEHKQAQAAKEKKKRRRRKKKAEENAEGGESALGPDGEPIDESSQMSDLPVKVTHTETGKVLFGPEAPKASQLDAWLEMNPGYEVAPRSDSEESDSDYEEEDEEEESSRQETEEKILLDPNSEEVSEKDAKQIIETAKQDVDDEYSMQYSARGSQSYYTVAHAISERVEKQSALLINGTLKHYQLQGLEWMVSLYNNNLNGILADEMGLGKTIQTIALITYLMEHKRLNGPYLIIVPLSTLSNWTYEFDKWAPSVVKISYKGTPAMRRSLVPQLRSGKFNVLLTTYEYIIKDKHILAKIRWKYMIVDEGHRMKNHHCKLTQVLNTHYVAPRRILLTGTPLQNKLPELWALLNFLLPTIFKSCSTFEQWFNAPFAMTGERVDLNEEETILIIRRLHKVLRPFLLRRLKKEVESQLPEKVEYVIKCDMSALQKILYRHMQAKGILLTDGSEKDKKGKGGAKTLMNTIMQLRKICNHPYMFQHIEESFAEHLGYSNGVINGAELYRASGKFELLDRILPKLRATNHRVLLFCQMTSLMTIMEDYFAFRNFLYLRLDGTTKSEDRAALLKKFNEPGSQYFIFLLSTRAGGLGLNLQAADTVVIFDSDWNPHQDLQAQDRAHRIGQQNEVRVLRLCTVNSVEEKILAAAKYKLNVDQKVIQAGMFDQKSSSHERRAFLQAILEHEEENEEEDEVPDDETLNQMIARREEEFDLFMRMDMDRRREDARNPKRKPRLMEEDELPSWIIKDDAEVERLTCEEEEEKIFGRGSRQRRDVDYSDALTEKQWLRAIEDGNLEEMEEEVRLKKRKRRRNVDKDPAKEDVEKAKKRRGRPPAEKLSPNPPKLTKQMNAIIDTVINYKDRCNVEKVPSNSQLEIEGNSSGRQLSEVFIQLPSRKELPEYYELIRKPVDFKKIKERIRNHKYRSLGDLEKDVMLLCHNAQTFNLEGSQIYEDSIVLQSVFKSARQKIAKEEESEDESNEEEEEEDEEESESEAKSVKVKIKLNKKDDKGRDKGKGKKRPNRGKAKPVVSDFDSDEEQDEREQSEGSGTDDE
T2 sequence (P51532 whole entry, the tested form may be a part): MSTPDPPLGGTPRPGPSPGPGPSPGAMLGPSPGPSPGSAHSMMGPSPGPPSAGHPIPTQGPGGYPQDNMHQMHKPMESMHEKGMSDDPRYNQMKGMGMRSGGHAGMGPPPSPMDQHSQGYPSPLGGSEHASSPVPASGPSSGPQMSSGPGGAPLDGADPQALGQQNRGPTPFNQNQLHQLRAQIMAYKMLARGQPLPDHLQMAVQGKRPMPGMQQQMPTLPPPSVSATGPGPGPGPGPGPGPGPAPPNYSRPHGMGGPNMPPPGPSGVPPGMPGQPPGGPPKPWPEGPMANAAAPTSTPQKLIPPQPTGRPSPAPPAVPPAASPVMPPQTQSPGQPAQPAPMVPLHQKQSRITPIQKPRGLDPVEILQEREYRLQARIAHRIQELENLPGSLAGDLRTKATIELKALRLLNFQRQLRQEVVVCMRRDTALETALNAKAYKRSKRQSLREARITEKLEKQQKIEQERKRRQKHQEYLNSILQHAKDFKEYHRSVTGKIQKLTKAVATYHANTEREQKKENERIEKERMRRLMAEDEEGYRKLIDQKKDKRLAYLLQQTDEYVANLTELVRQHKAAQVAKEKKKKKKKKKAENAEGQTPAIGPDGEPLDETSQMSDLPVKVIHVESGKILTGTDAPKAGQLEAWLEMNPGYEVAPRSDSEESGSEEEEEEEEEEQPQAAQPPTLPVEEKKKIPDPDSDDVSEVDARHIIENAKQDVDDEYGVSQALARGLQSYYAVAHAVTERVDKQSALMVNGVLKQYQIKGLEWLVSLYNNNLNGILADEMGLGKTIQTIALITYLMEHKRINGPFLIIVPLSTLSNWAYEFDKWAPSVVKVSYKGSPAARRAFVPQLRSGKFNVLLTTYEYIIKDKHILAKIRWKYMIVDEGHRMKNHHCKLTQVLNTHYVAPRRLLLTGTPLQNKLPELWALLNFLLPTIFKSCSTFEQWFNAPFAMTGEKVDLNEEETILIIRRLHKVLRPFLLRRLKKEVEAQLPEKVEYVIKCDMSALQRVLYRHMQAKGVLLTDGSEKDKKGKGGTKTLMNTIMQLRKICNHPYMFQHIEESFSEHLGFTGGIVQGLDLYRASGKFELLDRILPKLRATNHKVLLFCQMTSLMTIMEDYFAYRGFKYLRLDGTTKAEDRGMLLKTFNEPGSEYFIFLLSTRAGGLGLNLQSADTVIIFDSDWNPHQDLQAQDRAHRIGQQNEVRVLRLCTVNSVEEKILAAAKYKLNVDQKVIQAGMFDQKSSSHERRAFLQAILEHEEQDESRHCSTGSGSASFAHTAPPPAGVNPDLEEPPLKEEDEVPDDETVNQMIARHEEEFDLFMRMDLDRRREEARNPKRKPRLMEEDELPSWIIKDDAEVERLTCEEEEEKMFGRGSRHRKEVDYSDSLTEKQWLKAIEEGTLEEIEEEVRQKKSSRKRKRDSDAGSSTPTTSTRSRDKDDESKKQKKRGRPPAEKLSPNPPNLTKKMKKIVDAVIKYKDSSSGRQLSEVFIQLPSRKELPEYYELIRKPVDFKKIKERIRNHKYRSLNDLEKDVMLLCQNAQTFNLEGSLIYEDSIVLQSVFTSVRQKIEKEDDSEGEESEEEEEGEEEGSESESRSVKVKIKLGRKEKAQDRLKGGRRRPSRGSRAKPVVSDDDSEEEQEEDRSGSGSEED

`Cc1ncsc1-c1ccc([C@H](C)NC(=O)[C@@H]2C[C@@H](O)CN2C(=O)[C@@H](c2cc(OCCN3CC(c4ccc5nnc(-c6ccccc6O)cc5c4)C3)no2)C(C)C)cc1` [Compound 1, (2S,4R)-4-hydroxy-1-[(2R)-2-[3-(2-{3-[3-(2-hydroxyphenyl)cinnolin-6-yl]azetidin-1-yl}ethoxy)-1,2-oxazol-5-yl]-3-methylbutanoyl]-N-[(1S)-1-[4-(4-methyl-1,3-thiazol-5-yl)phenyl]ethyl]pyrrolidine-2-carboxamide]: in test [1], the DC50 was greater than 10 nM and the “BRM HiBit Degradation Maximum (%)” value is “B (“B” indicates maximum degradation ≥50%)”. Further, the Dmax in test [2] was less than 50%.

Regarding `Cc1ncsc1-c1ccc([C@H](C)NC(=O)[C@@H]2C[C@@H](O)CN2C(=O)[C@@H](c2cc(N3CCC(CN4CC(c5ccc6nnc(-c7ccccc7O)cc6c5)C4)CC3)no2)C(C)C)cc1` [Compound 2, (2S,4R)-4-hydroxy-1-((R)-2-(3-(4-((3-(3-(2-hydroxyphenyl)cinnolin-6-yl)azetidin-1-yl)methyl)piperidin-1-yl)isoxazol-5-yl)-3-methylbutanoyl)-N-((S)-1-(4-(4-methylthiazol-5-yl)phenyl)ethyl)pyrrolidine-2-carboxamide], in test [1], the DC50 was greater than 10 nM and the “BRM HiBit Degradation Maximum (%)” value is recorded as “A (“A” indicates maximum degradation ≥75%)”. In addition, the Dmax in test [2] was less than 50%.

For the compound `Cc1ncsc1-c1ccc([C@H](C)NC(=O)[C@@H]2C[C@@H](O)CN2C(=O)[C@@H](c2cc(N3CCC(N4CC(c5ccc6nnc(-c7ccccc7O)cc6c5)C4)CC3)no2)C(C)C)cc1` [Compound 3, (2S,4R)-4-hydroxy-1-((R)-2-(3-(4-(3-(3-(2-hydroxyphenyl)cinnolin-6-yl)azetidin-1-yl)piperidin-1-yl)isoxazol-5-yl)-3-methylbutanoyl)-N-((S)-1-(4-(4-methylthiazol-5-yl)phenyl)ethyl)pyrrolidine-2-carboxamide], in test [1], the DC50 is less than 10 nM and the “BRM HiBit Degradation Maximum (%)” value is “A (“A” indicates maximum degradation ≥75%)”. Moreover, in test [2], the DC50 is less than 10 nM and the Dmax is greater than 75%.

In the case of `Cc1ncsc1-c1ccc([C@H](C)NC(=O)[C@@H]2C[C@@H](O)CN2C(=O)[C@@H](c2cc(-c3cnc(N4CC(c5ccc6nnc(-c7ccccc7O)cc6c5)C4)nc3)no2)C(C)C)cc1` [Compound 4, (2S,4R)-4-hydroxy-1-[(2R)-2-[3-(2-{3-[3-(2-hydroxyphenyl)cinnolin-6-yl]azetidin-1-yl}pyrimidin-5-yl)-1,2-oxazol-5-yl]-3-methylbutanoyl]-N-[(1S)-1-[4-(4-methyl-1,3-thiazol-5-yl)phenyl]ethyl]pyrrolidine-2-carboxamide], in test [1], the DC50 was less than 10 nM and the “BRM HiBit Degradation Maximum (%)” value is on record as “A (“A” indicates maximum degradation ≥75%)”. In test [2], the DC50 is greater than 10 nM and the Dmax was greater than 75%.

`Cc1ncsc1-c1ccc([C@H](C)NC(=O)[C@@H]2C[C@@H](O)CN2C(=O)[C@H](c2cc(-c3cnc(N4CC(c5ccc6nnc(-c7ccccc7O)cc6c5)C4)nc3)no2)C(C)C)cc1` [Compound 5, (2S,4R)-4-hydroxy-1-[(2S)-2-[3-(2-{3-[3-(2-hydroxyphenyl)cinnolin-6-yl]azetidin-1-yl}pyrimidin-5-yl)-1,2-oxazol-5-yl]-3-methylbutanoyl]-N-[(1S)-1-[4-(4-methyl-1,3-thiazol-5-yl)phenyl]ethyl]pyrrolidine-2-carboxamide]: in test [1], the DC50 is greater than 100 nM and the “BRM HiBit Degradation Maximum (%)” value is recorded as “B (“B” indicates maximum degradation ≥50%)”. Besides, the Dmax in test [2] is less than 50%.

As for `Cc1ncsc1-c1ccc([C@H](C)NC(=O)[C@@H]2C[C@@H](O)CN2C(=O)[C@@H](c2cc(OCC(=O)N3CC(c4ccc5nnc(-c6ccccc6O)cc5c4)C3)no2)C(C)C)cc1` [Compound 6, (2S,4R)-4-hydroxy-1-[(2R)-2-[3-(2-{3-[3-(2-hydroxyphenyl)cinnolin-6-yl]azetidin-1-yl}-2-oxoethoxy)-1,2-oxazol-5-yl]-3-methylbutanoyl]-N-[(1S)-1-[4-(4-methyl-1,3-thiazol-5-yl)phenyl]ethyl]pyrrolidine-2-carboxamide], in test [1], the DC50 is greater than 100 nM and the “BRM HiBit Degradation Maximum (%)” value is given as “B (“B” indicates maximum degradation ≥50%)”. Moreover, the Dmax in test [2] is less than 50%.

Turning to `Cc1ncsc1-c1ccc([C@H](C)NC(=O)[C@@H]2C[C@@H](O)CN2C(=O)[C@@H](c2cc(N3CCC(C(=O)N4CC(c5ccc6nnc(-c7ccccc7O)cc6c5)C4)CC3)no2)C(C)C)cc1` [Compound 7, (2S,4R)-4-hydroxy-1-((R)-2-(3-(4-(3-(3-(2-hydroxyphenyl)cinnolin-6-yl)azetidine-1-carbonyl)piperidin-1-yl)isoxazol-5-yl)-3-methylbutanoyl)-N-((S)-1-(4-(4-methylthiazol-5-yl)phenyl)ethyl)pyrrolidine-2-carboxamide], in test [1], the DC50 was greater than 10 nM and the “BRM HiBit Degradation Maximum (%)” value is given as “A (“A” indicates maximum degradation ≥75%)”. For the same compound, in test [2], the DC50 was greater than 100 nM and the Dmax was greater than 50%.

Consider `Cc1ncsc1-c1ccc([C@H](C)NC(=O)[C@@H]2C[C@@H](O)CN2C(=O)[C@@H](c2cc(OCCN3CC(c4ccc5cc(-c6ccccc6O)nnc5c4)C3)no2)C(C)C)cc1` [Compound 8, (2S,4R)-4-hydroxy-1-[(2R)-2-[3-(2-{3-[3-(2-hydroxyphenyl)cinnolin-7-yl]azetidin-1-yl}ethoxy)-1,2-oxazol-5-yl]-3-methylbutanoyl]-N-[(1S)-1-[4-(4-methyl-1,3-thiazol-5-yl)phenyl]ethyl]pyrrolidine-2-carboxamide], for which, in test [1], the DC50 was less than 10 nM and the “BRM HiBit Degradation Maximum (%)” value was “A (“A” indicates maximum degradation ≥75%)”. Further, in test [2], the Dmax is greater than 50%.

In the case of `Cc1ncsc1-c1ccc([C@H](C)NC(=O)[C@@H]2C[C@@H](O)CN2C(=O)[C@@H](c2cc(N3CCC(CN4CC(c5ccc6cc(-c7ccccc7O)nnc6c5)C4)CC3)no2)C(C)C)cc1` [Compound 9, (2S,4R)-4-hydroxy-1-((R)-2-(3-(4-((3-(3-(2-hydroxyphenyl)cinnolin-7-yl)azetidin-1-yl)methyl)piperidin-1-yl)isoxazol-5-yl)-3-methylbutanoyl)-N-((S)-1-(4-(4-methylthiazol-5-yl)phenyl)ethyl)pyrrolidine-2-carboxamide], in test [1], the DC50 is greater than 10 nM and the “BRM HiBit Degradation Maximum (%)” value is given as “A (“A” indicates maximum degradation ≥75%)”. In addition, in test [2], the Dmax is less than 50%.

`Cc1ncsc1-c1ccc([C@H](C)NC(=O)[C@@H]2C[C@@H](O)CN2C(=O)[C@@H](c2cc(N3CCC(N4CC(c5ccc6cc(-c7ccccc7O)nnc6c5)C4)CC3)no2)C(C)C)cc1` [Compound 10, (2S,4R)-4-hydroxy-1-((R)-2-(3-(4-(3-(3-(2-hydroxyphenyl)cinnolin-7-yl)azetidin-1-yl)piperidin-1-yl)isoxazol-5-yl)-3-methylbutanoyl)-N-((S)-1-(4-(4-methylthiazol-5-yl)phenyl)ethyl)pyrrolidine-2-carboxamide]: in test [1], the DC50 is greater than 10 nM and the “BRM HiBit Degradation Maximum (%)” value is listed as “A (“A” indicates maximum degradation ≥75%)”. Also, the Dmax in test [2] was less than 50%.

In the case of `Cc1ncsc1-c1ccc([C@H](C)NC(=O)[C@@H]2C[C@@H](O)CN2C(=O)[C@@H](c2cc(-c3cnc(N4CC(c5ccc6cc(-c7ccccc7O)nnc6c5)C4)nc3)no2)C(C)C)cc1` [Compound 11, (2S,4R)-4-hydroxy-1-[(2R)-2-[3-(2-{3-[3-(2-hydroxyphenyl)cinnolin-7-yl]azetidin-1-yl}pyrimidin-5-yl)-1,2-oxazol-5-yl]-3-methylbutanoyl]-N-[(1S)-1-[4-(4-methyl-1,3-thiazol-5-yl)phenyl]ethyl]pyrrolidine-2-carboxamide], in test [1], the DC50 is less than 10 nM and the “BRM HiBit Degradation Maximum (%)” value is given as “A (“A” indicates maximum degradation ≥75%)”. Besides, in test [2], the Dmax was less than 50%.

Turning to `Cc1ncsc1-c1ccc([C@H](C)NC(=O)[C@@H]2C[C@@H](O)CN2C(=O)[C@H](c2cc(-c3cnc(N4CC(c5ccc6cc(-c7ccccc7O)nnc6c5)C4)nc3)no2)C(C)C)cc1` [Compound 12, (2S,4R)-4-hydroxy-1-[(2S)-2-[3-(2-{3-[3-(2-hydroxyphenyl)cinnolin-7-yl]azetidin-1-yl}pyrimidin-5-yl)-1,2-oxazol-5-yl]-3-methylbutanoyl]-N-[(1S)-1-[4-(4-methyl-1,3-thiazol-5-yl)phenyl]ethyl]pyrrolidine-2-carboxamide], in test [1], the DC50 was greater than 100 nM and the “BRM HiBit Degradation Maximum (%)” value is “C (“C” indicates maximum degradation <50%)”. Besides, the Dmax in test [2] was less than 50%.

These data come from patent US20260193264A1, “BENZOYPARAZINE PYRAZINES AND THEIR USES” (FOGHORN THERAPEUTICS INC., priority 2022, published 2026).
